In the OPERA property sets (Mansouri et al. 2018):

With `COc1cc(OC)cc(O[C@H]2O[C@H](CO)[C@@H](O)[C@H](O)[C@H]2O)c1` the melting point was 170 °C. `C[Si](C)(C)CCCCl` gave a boiling point of 151 °C. With `NS(=O)(=O)c1ccc(S(=O)(=O)CCCO)cc1` the melting point was 150 °C. For `CC1CC(C)C(C)C1` (stereo not given), the boiling point was 117 °C and the melting point was -132 °C. With `CC(C)(c1ccccc1)c1ccc(O)cc1` the boiling point was 335 °C, the log10 vapour pressure (mmHg) was -4.23 and the melting point was 75 °C. The ready biodegradability was “not readily biodegradable”. For `CC(Cl)(Cl)C(=O)[O][Na]`, the log10 Koc (L/kg) was 0. For `O=C(O)c1cc2ccccc2[nH]1`, the melting point was 206 °C. For `CN(C)c1ccccc1[N+](=O)[O-]`, the melting point was -20 °C. For `CNC(=O)N(C)c1nc2ccccc2s1`, the log10 Koc (L/kg) was 2.8, the log10 vapour pressure (mmHg) was -6.95 and the melting point was 120 °C. Compound `CC(=O)c1ccc(Br)s1` has a melting point of 94.5 °C. In the case of `Cc1ccc(S(=O)(=O)N(C)N=O)cc1`, the melting point is reported as 60 °C. For `CCCCCCCCCCOc1ccc(C(=O)O)cc1`, the melting point was 114 °C. With `CC(=O)N1CCOCC1` the melting point was 14.5 °C. For `CCCCCC(C)Br` (stereo not given), the boiling point was 166 °C, the log10 vapour pressure (mmHg) was 0.358 and the melting point was 47 °C. Work on `O=C1c2ccccc2C(=O)C1C(=O)C(c1ccccc1)c1ccc(Cl)cc1` (stereo not given) yielded a log10 vapour pressure (mmHg) of -9.12 and a melting point of 140 °C. `O=Cc1c[nH]c2ccccc12` gave a melting point of 196 °C. In the case of `C=CCOC(=O)c1ccccc1C(=O)OCC=C`, the ready biodegradability is reported as “readily biodegradable”. In the case of `O=C1C=CC(=O)O1`, the boiling point is reported as 202 °C, the log10 vapour pressure (mmHg) is reported as -0.602 and the melting point is reported as 52.8 °C. The ready biodegradability was “readily biodegradable”. Compound `Nc1ccc(S(=O)(=O)Nc2ccccc2)cc1` has a melting point of 200 °C. For `CCCCCCCCCCCCCCCCc1ccccc1`, the boiling point was 385 °C, the log10 vapour pressure (mmHg) was -5.45 and the melting point was 27 °C. `CCN(CC)CCOC(=O)[C@@H]1N2C(=O)[C@@H](NC(=O)Cc3ccccc3)[C@H]2SC1(C)C.I` gave a melting point of 178 °C. With `CCOC(=O)C(Br)Br` the boiling point was 194 °C. With `c1ccc(OB(Oc2ccccc2)Oc2ccccc2)cc1` the melting point was 99.5 °C. Work on `ClCC1CO1` (stereo not given) yielded a boiling point of 117 °C, a log10 Koc (L/kg) of 1 and a log10 vapour pressure (mmHg) of 1.22. The melting point was -41.6 °C and the ready biodegradability was “not readily biodegradable”. With `CCOCCC(OCC)OCC` the boiling point was 185 °C and the melting point was 53 °C. `c1ccc(-c2ccc3ccccc3c2)cc1` gave a boiling point of 346 °C, a log10 vapour pressure (mmHg) of -4.46 and a melting point of 104 °C. `CC(Cl)CCl` (stereo not given) showed a boiling point of 95.5 °C, a log10 Henry constant (atm·m³/mol) of -2.55 and a log10 Koa of 2.96. The log10 Koc (L/kg) was 1.67, the log10 vapour pressure (mmHg) was 1.73 and the melting point was -100 °C. For the same compound, the ready biodegradability was “not readily biodegradable”. For `ClCBr`, the boiling point was 68 °C, the log10 vapour pressure (mmHg) was 2.15 and the melting point was -87.9 °C. The ready biodegradability was “not readily biodegradable”. `CCC(C)(Cl)Cl` showed a boiling point of 104 °C and a melting point of -74 °C. For `CCOP(=O)(SC(C)CC)N1CCSC1=O` (stereo not given), the log10 Henry constant (atm·m³/mol) was -9.76 and the log10 vapour pressure (mmHg) was -5.38. For `CCN(CC)c1ccc(N=O)cc1`, the melting point was 87.5 °C. With `CCB(Cl)CC` the boiling point was 78.5 °C and the melting point was -84.6 °C. Work on `CCCCOc1ccc(O)cc1` yielded a melting point of 65.5 °C. Work on `COC(=O)C(C)C(=O)OC` yielded a boiling point of 174 °C. Work on `CC(N)Cc1ccc(O)cc1` (stereo not given) yielded a melting point of 126 °C. Compound `O=CC=Cc1ccc([N+](=O)[O-])o1` has a melting point of 118 °C. Work on `C=C1N(C)c2ccccc2C1(C)C` yielded a boiling point of 248 °C. With `CC[C@H]1OC(=O)[C@H](C)C(=O)[C@H](C)[C@@H](O[C@@H]2O[C@H](C)C[C@H](N(C)C)[C@H]2O)[C@@H](C)C[C@@H](C)C(=O)C=C[C@]1(C)O` the melting point was 170 °C. `Clc1cc(Cl)c2c(c1)oc1c(Cl)cc(Cl)cc12` showed a log10 vapour pressure (mmHg) of -7.57 and a melting point of 177 °C. `O=P1(NCCCl)OCCCN1CCCl` (stereo not given) gave a melting point of 40 °C. Work on `COc1c(C(C)C)oc2cc3oc(=O)ccc3cc12` yielded a melting point of 85 °C. `Cc1cc(C)c(Br)c(C)c1` gave a boiling point of 225 °C and a melting point of -1 °C. In the case of `c1ccc2[nH]nnc2c1`, the boiling point is reported as 350 °C, the log10 Koc (L/kg) is reported as 1.69 and the melting point is reported as 100 °C.
